The values below come from patent US20100160351A1, “PHARMACEUTICAL COMPOSITIONS AND METHODS FOR TREATING HYPERURICEMIA AND RELATED DISORDERS” (NUON THERAPEUTICS, INC., priority 2008, published 2010).

This assay deals with monosodium urate (MSU) crystal-induced air pouch inflammation. The assay is described as follows: Air Pouch Model 2: MSU crystal air pouch, rodent model of gout. The class given is in vivo, male Sprague-Dawley rats. The settings on record: for Average Exudate Volume, Mean / Average Plasma Extravasation, OD620 nm, Mean / Total WBC in Sample, Mean / WBC in exudate, Mean: 4 h after MSU. As to the method:
The objective of this study was to evaluate the anti-inflammatory potency of Tranilast. This evaluation was carried out in male Sprague-Dawley rats in a rodent model of gout. The animals were injected subcutaneously with 20 ml of sterile air, followed three days later by a supplemental injection with 20 ml of sterile air. Six days after the initial sterile air injection, the rats were injected intravenously with Evan's Blue and pretreated for thirty minutes with oral administration of 25 mg/kg, 50 mg/kg, 100 mg/kg or 200 mg/kg tranilast. After the pretreatment period, the rats were injected with 150 mg of monosodium urate (MSU) crystals (10 mg/ml) into the air pouch. Four hours later, the air pouch was injected with 5 ml heparinized saline and the entire contents of the air pouch removed, recording the total volume. The air pouch contents were evaluated for plasma extravasation and total white blood cell (WBC) count.
On day 0 the rats were anesthetized in a biological cabinet, the nape of the neck was cleansed with 70% isopropanol followed by iodine tincture (VEDCO, lot L021976). Twenty ml sterile (0.22 μm, Millipore, Cat. SLGSV255F, lot R8J1494130, exp July 2011) air was injected subcutaneously using a 23 G×2 inch needle fixed to a 20 ml syringe. The rats were returned to routine housing. No adverse reactions were observed.
On day 3 the rats were anesthetized in a biological cabinet, the nape of the neck was cleansed with 70% isopropanol followed by iodine tincture (VEDCO, lot L021976). Twenty ml sterile (0.22 μm, Fisher Scientific, Cat. 09-720-3, lot R5SN25683) air was injected subcutaneously using a 23 G×2 inch needle fixed to a 20 ml syringe. The rats were returned to routine housing. No adverse reactions were observed.
On day 6 the rats were weighed (Mettler, Model PE3000, SN: F69474) and injected intravenously injected with 2 ml/kg Evans Blue. The animals were dosed orally with 0.5 ml/kg, 1 ml/kg, 2; ml/kg or 4 ml/kg tranilast, or 4 ml/kg vehicle.
Thirty minutes after test material administration, the rats were anesthetized and five groups (2-6) were injected into the air pouch with 15 ml MSU using a 19 G×2 inch needle fitted to a 20 ml syringe. Group 1 was injected with 15 ml saline. The rats were returned to their cages, no adverse affects were observed.
Four hours after MSU/saline injection, the rats were anesthetized and 5 ml 10 U/ml heparinized saline was injected into the air pouch. The air pouch was gently massaged, the contents immediately removed using a 14 G×1 inch needle fitted to a 6 ml syringe, and the exudate volume recorded. An aliquot of the exudate was transferred to heparin-treated microtainer tubes (Becton Dickinson, Cat. 365958, lot 9140110, expo July 2010) for white blood cell (WBC) counting. The remainder of the exudate was centrifuged (Hermle Labrotechnik, Model Z200A, SN: 44060036), the supernatants removed and evaluated at OD620nm (Spectronic Unicam, Model 4000 1/4, SN: 3SGD003006) for plasma extravasation.

Setting [1] is: 25 mg/kg oral, 30 min before MSU.
Setting [2] is: 50 mg/kg oral, 30 min before MSU.
The mark [3] stands for this setting: 100 mg/kg oral, 30 min before MSU.
Setting [4] is: 200 mg/kg oral, 30 min before MSU.
Setting [5] is: highest dose 200 mg/kg oral, 30 min before MSU.
The mark [6] stands for this setting: oral, sigmoidal dose-response (variable slope) analysis.

Regarding `COc1ccc(/C=C/C(=O)Nc2ccccc2C(=O)O)cc1OC` [Tranilast, 2-[[3-(3,4-dimethoxyphenyl)-1-oxo-2-propenyl]amino]benzoic acid], under setting [1], the “Average Exudate Volume, Mean” value is 6.5 mL; the “Average Plasma Extravasation, OD620 nm, Mean” value (“Average Plasma Extravasation” below) was 1.431; the “Total WBC in Sample, Mean” value is given as 20550000; the “WBC in exudate, Mean” value is reported as 3196000 cells/ml. Under setting [2], the “Average Exudate Volume, Mean” value was determined as 8.6 mL; the “Average Plasma Extravasation” value is 1.048; the “Total WBC in Sample, Mean” value stood at 12476000; the “WBC in exudate, Mean” value came to 1557000 cells/ml. For the same compound, under setting [3], the “Average Exudate Volume, Mean” value was determined as 8.0 mL; the “Average Plasma Extravasation” value was found to be 0.939; the “Total WBC in Sample, Mean” value is on record as 10629600; the “WBC in exudate, Mean” value worked out at 1566000 cells/ml. For the same compound, under setting [4], the “Average Exudate Volume, Mean” value amounted to 3.2 mL; the “Average Plasma Extravasation” value was 0.819; the “Total WBC in Sample, Mean” value is reported as 10305200; the “WBC in exudate, Mean” value was 3516000 cells/ml. In addition, under setting [5], the “inhibition of plasma extravasation” value is on record as 42% and the “inhibition of white blood cell infiltration” value is given as 80%. Further, the “effect on MSU-induced parameters (plasma extravasation, leukocyte infiltration)” value (oral 25-200 mg/kg, 30 min before MSU) is recorded as “dose-dependent inhibition”. Also, under setting [6], the “IC50 effect on plasma extravasation” value came out at 45 mg/kg and the “IC50 effect on white blood cell infiltration” value was 16 mg/kg.
